Test results published in US6485955B1, “Quiescent cell dipeptidyl peptidase: a novel cytoplasmic serine protease” (The Trustees of Tufts University, priority 1997, dated 2002).
Where two headings read alike, the source gives them in different places. Peptide text beside a SMILES is read from it. * marks the point of attachment. Cbz = O=C(OCc1ccccc1)*; CH2F = FC*

Assays:
QPP = QPP (Homo sapiens, UniProt Q9UHL4); test: AlaProAFC cleavage by PBMC cytosolic preparation (QPP peptidase activity); type: biochemical; conditions: for QPP inhibition (inhibitory profile): comparison with DPIV profile
DPIV = DPIV (Homo sapiens, UniProt P27487); conditions: cited from earlier work
DPIV, sequence (P27487 whole entry): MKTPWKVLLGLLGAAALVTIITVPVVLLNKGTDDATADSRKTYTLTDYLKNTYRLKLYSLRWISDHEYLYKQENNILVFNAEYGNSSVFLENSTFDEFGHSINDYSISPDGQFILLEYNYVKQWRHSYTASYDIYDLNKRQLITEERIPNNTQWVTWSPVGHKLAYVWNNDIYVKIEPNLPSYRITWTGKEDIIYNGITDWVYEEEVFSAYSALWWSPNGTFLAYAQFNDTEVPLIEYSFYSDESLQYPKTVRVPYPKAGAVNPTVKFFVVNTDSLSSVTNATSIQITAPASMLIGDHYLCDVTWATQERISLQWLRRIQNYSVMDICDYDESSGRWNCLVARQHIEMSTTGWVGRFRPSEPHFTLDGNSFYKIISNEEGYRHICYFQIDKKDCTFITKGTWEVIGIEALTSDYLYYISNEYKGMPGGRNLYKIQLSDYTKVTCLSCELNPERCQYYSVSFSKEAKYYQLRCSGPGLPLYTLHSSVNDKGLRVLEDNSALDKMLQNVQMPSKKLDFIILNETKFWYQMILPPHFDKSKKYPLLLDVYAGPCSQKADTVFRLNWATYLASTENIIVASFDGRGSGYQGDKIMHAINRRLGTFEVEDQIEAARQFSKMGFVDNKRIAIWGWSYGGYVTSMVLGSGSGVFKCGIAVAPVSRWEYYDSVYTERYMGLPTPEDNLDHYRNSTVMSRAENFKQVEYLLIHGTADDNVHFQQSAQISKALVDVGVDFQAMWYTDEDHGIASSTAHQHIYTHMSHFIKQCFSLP

[1] = system: peripheral blood mononuclear cells (PBMC); test: Cell death in overnight cultures of freshly isolated PBMC; conditions: for number of dead cells / PCD induction in resting PBMC cultures: compared to media alone
CD11b+ monocytes = test: VbP-induced death of monocytes; type: cell-based, human
[2] = system: purified T-cells (CD4+/CD8+); test: VbP-induced death of purified resting T-cells; type: cell-based, human; conditions: for effect on VbP-mediated T-cell death: added with VbP, non-cycling T-cells
Excerpt: (§1) Methods. […] Sorted cell populations were >90% pure.

activated PBMC = test: Induced death of activated PBMC (PHA blasts) and long term cultured cells; type: cell-based, human
Excerpt: as §1

CD19+ B cells = test: VbP-induced death of B cells; type: cell-based, human
[3] = system: phosphatidylserine (PS) on the surface of cells; test: FITC-annexin V detection of surface phosphatidylserine; type: cell-based, human; conditions: cells treated with VbP
[4] = system: serum-starved, G0 phase fibroblasts; test: Apoptosis of serum-starved G0 fibroblasts transfected with QPP transgene; type: cell-based; conditions: compared to non-QPP transfected fibroblasts
Excerpt: The role of QPP in protecting quiescent (non-cycling) cells from death was confirmed in fibroblasts transfected with a QPP transgene sequence using standard techniques.

[5] = PBMC cytosolic preparation, high concentrations

Compound: NC(=O)CI [IAA]
- inhibition of cytosolic AlaProAFC cleaving enzymatic activity (QPP): partially inhibited

Compound: NC(CCCCNC(=O)OCc1ccc([N+](=O)[O-])cc1)C(=O)N1CCCCC1 (stereo not shown) [Lys-piperidide, NO2-Z-Lys-piperidide]
- QPP inhibition (inhibitory profile) (QPP): did inhibit QPP at higher concentrations than Lys-thiazolidide
- DPIV inhibition (DPIV): does not inhibit DPIV

Compound: NC(CCCCNC(=O)OCc1ccc([N+](=O)[O-])cc1)C(=O)N1CCSC1 (stereo not shown) [Lys-thiazolidide, NO2-Z-Lys-thiazolidide]
- QPP inhibition (inhibitory profile) (QPP): most potent inhibitors

Compound: CCN1C(=O)C=CC1=O [NEM]
- inhibition of cytosolic AlaProAFC cleaving enzymatic activity (QPP): partially inhibited

Compound: O=S(=O)(F)Cc1ccccc1 [PMSF]
- inhibition of cytosolic AlaProAFC cleaving enzymatic activity (QPP; [5]): partially inhibited

Compound: Cc1ccc(S(=O)(=O)N[C@@H](CCCCN)C(=O)CCl)cc1 [TLCK]
- inhibition of cytosolic AlaProAFC cleaving enzymatic activity (QPP): partially inhibited

Compound: CC(C)[C@H](N)C(=O)N1CCC[C@H]1B(O)O [VbP, Val-boroPro]
- inhibition of cytosolic AlaProAFC cleaving enzymatic activity (QPP; PBMC cytosolic preparation (110,000 g supernatant)): inhibited
- QPP inhibition (inhibitory profile) (QPP): most potent inhibitors
- time at which dead cells were apparent after addition ([1]; PBMC cultures): 4 h
- time to maximal death ([1]; PBMC cultures): ≤ 24 h
- maximal death ([1]; PBMC cultures, within 24 hours): about 70%
- number of dead cells / PCD induction in resting PBMC cultures [1]: striking increase in the number of dead cells
- susceptibility to VbP-induced death (CD11b+ monocytes): resistant
- T-cell death in CD26+ versus CD26- resting T-cell subpopulations ([2]; CD26+ and CD26- resting T-cells): to the same degree
- susceptibility to VbP-induced death ([2]; purified T-cells (CD4+/CD8+) vs whole PBMC): greater sensitivity than whole PBMC
- susceptibility of activated PBMC to induced PCD (activated PBMC): resistant
- susceptibility to VbP-induced PCD after return to non-cycling phase (G0) (activated PBMC; activated PBMC maintained in culture until G0): regain sensitivity
- susceptibility to VbP-induced death (CD19+ B cells): resistant
- amount of PS on the surface of cells (FITC-annexin V) [3]: time-dependent increase

Compound: COC(=O)C[C@H](NC(=O)[C@H](C)NC(=O)[C@@H](NC(=O)OCc1ccccc1)C(C)C)C(=O)CF [Z-VADfmk] (Cbz-Val-Ala-Asp(OMe)-CH2F)
- effect on VbP-mediated T-cell death [2]: blocked

Compound: N=C(N)c1ccccc1 [benzamidine]
- inhibition of cytosolic AlaProAFC cleaving enzymatic activity (QPP; [5]): partially inhibited

Compound: CC(C)[C@@H](N)C(=O)N1CCC[C@H]1B(O)O [d-Val-d-boroPro]
- number of dead cells / PCD induction in resting PBMC cultures [1]: inactive

Compound: CC(=O)N[C@@H](CSC(=O)[C@]1([C@@H](O)C(C)C)NC(=O)[C@H](C)[C@@H]1O)C(=O)O [lactacystin]
- number of dead cells / PCD induction in resting PBMC cultures [1]: does not induce PCD
- effect on VbP-mediated T-cell death [2]: neither the anti-Fas mAb M3 nor lactacystin had any effect
- susceptibility of activated PBMC to induced PCD (activated PBMC): susceptible

Compound: (Z)-Ala-[CF═C]-Pro-NHO-Bz(4NO2) [L-125]
- QPP inhibition (inhibitory profile) (QPP): did not inhibit QPP

Compound: recombinant QPP: recombinant quiescent cell post-prolyl dipeptidase polypeptide expressed from a transgene in fibroblasts
- apoptosis of quiescent fibroblasts [4]: inhibited apoptosis
